Reference: patent publication US20080207522A1, “Antimicrobial Peptides” (priority 2004, published 2008)
Ends that are not written are not given here.

Legend:
[1] = test system: Pseudomonas aeruginosa strain H1001; test: Assay for the cleaved (free, soluble) peptides from cellulose support, luminescence killing assay; type: cell-based; set-up: key: 1: Peptides showing stronger killing than Bac2A at a 4 to 8-fold higher dilution; Peptides showing stronger killing compared to that of Bac2A at a 4-fold higher dilution; 3: Peptides similar to Bac2A; 4: Peptides similar to Bac2A at the highest concentration but demonstrating weaker killing at a 2-fold dilution; 5: Peptides giving very weak or no killing at a 2-fold dilution; 6: Peptides with weak killing activity at the highest concentration; details: for Soluble Class: Table 5, free peptides; for Activity Class Soluble: free (cleaved) peptides, killing relative to Bac2A
Procedure, shortened: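 Cellulose-synthesized peptides (amidated C-terminus, two β-alanines) cleaved by ammonia, released from punched spots 30 min at 37 °C, then serially diluted. P. aeruginosa H1001 (constitutive fliC::luxCDABE) overnight culture diluted 1:500 in LB or 100 mM Tris pH 7.3/20 mM glucose. Killing followed as time-dependent luminescence loss at 37 °C.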

[2] = test system: Pseudomonas aeruginosa strain H1001 fliC::luxCDABE; test: Luminescence-based assay for the non-cleaved (bound) peptides on cellulose membranes; type: cell-based; details: for Luminescence at the given time in minutes: 0 / Luminescence at the given time in minutes: 20 / Luminescence at the given time in minutes: 40 / Luminescence at the given time in minutes: 60 / Luminescence at the given time in minutes: 80 / Luminescence at the given time in minutes: 100 / Luminescence at the given time in minutes: 120 / Luminescence at the given time in minutes: 180 / Luminescence at the given time in minutes: 240: cellulose-bound peptide; for Luminescence at the given time in minutes: 0: 0 min; for Luminescence at the given time in minutes: 20: 20 min; for Luminescence at the given time in minutes: 40: 40 min; for Luminescence at the given time in minutes: 60: 60 min; for Luminescence at the given time in minutes: 80: 80 min; for Luminescence at the given time in minutes: 100: 100 min; for Luminescence at the given time in minutes: 120: 120 min; for Luminescence at the given time in minutes: 180: 180 min; for Luminescence at the given time in minutes: 240: 240 min; for Activity Class bound: uncleaved cellulose-bound peptides
Procedure, shortened: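 Peptides remained bound to cellulose spots, which were ethanol-washed and equilibrated in 100 mM Tris pH 7.3. Constitutively lux-expressing P. aeruginosa (OD600 0.35 culture diluted 1:25) added in 10 mM Tris-HCl pH 7.3, 20 mM glucose at 37° C. Luminescence (RLU) followed over 14 time points; peptides binned into six activity classes.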

Candida albicans = test system: Candida albicans
Experimental: (§1) Minimal inhibitory concentration (MIC) determination. The MICs of the peptides were measured using a modified broth microdilution method in Mueller Hinton (MH) medium. Wu et al., J. Biol. Chem. 274: 29-35, 1999. Briefly, the peptides were dissolved and stored in glass vials. The assay was performed in sterile 96-well polypropylene microtitre plates were used. Serial dilutions of the peptides to be assayed were performed in 0.01% acetic acid (Fisher) containing 0.2% bovine serum albumin (Boehringer Mannheim GmbH) at 10× the desired final concentration. Ten microlitres of the 10× peptides were added to each well of a 96-well polypropylene plate containing 90 μl of MH media per well. Bacteria were added to the plate from an overnight culture at 2-7×10^5 colony forming units/ml and incubated over night at 37° C. The MIC was taken as the concentration at which no growth was observed.
(§2) Strains. For the killing assay a mini-Tn5-lux mutant in Pseudomonas aeruginosa H103 was used. The strain is called H1001 and contains a fliC::luxCDABE transcriptional fusion resulting in constitutive expression of luciferase. The bacterial strains used for the antimicrobial activity assays included Escherichia coli UB1005 (F-, nalA37, metB1), a wild-type Salmonella enterica ssp. Typhimurium (S. Typhimurium), wild-type Pseudomonas aeruginosa PAO1 strain H103, Enterococcus faecalis ATCC29212, Staphylococcus aureus ATCC25923, and a clinical isolate of Staphylococcus epidermidis obtained from Dr. D. Speert (Department of Medicine, University of British Columbia). Antifungal activity was tested using a lab isolate of Candida albicans obtained from Dr. B. Dill (Department of Microbiology and Immunology, University of British Columbia).
(§3) In addition, the parent peptide Bac2A was included in these studies as a standard. The minimal inhibitory concentrations (MIC) were determined for the important medical pathogens Pseudomonas aeruginosa, Escherichia coli, Salmonella typhimurium, Staphylococcus aureus, Staphylococcus epidermidis, Enterococcus faecaelis, and the yeast Candida albicans in Mueller-Hinton media.

[3] = test system: Enterococcus faecalis ATCC29212; details: ATCC29212
Experimental: as §1, §2, §3

[4] = test system: Pseudomonas aeruginosa PAO1 strain H103; details: PAO1
Experimental: as §1, §2, §3

[5] = test system: Salmonella enterica ssp. Typhimurium; details: ssp. Typhimurium
Experimental: as §1, §2, §3

[6] = test system: Staphylococcus aureus ATCC25923; details: ATCC25923
Experimental: as §1, §2, §3

[7] = test system: Staphylococcus epidermidis
Experimental: as §1, §2, §3

Substance | Soluble Class [1] | Activity Class Soluble [1] | Luminescence at the given time in minutes: 0 [2] [RLU] | Luminescence at the given time in minutes: 20 [2] [RLU] | Luminescence at the given time in minutes: 40 [2] [RLU] | Luminescence at the given time in minutes: 60 [2] [RLU] | Luminescence at the given time in minutes: 80 [2] [RLU] | Luminescence at the given time in minutes: 100 [2] [RLU] | Luminescence at the given time in minutes: 120 [2] [RLU] | Luminescence at the given time in minutes: 180 [2] [RLU] | Luminescence at the given time in minutes: 240 [2] [RLU] | MIC C. albicans (Candida albicans) [µg/mL] | MIC E. faecalis [3] [µg/mL] | MIC P. aeruginosa [4] [µg/mL] | MIC P. aeruginosa Muller Hinton Media [4] [µg/mL] | MIC P. aeruginosa With 10 μM Mg [4] [µg/mL] | MIC P. aeruginosa With 2 mM Mg [4] [µg/mL] | MIC S. typhimurium [5] [µg/mL] | MIC S. aureus [6] [µg/mL] | MIC S. epidermidis [7] [µg/mL] | other results
ILRRVRVRAVAI-NH2 (C-terminus assumed) [Bac022] | 6 | 6 | 4336 | 7179 | 5180 | 4505 | 3675 | 3365 | 3044 | 2912 | 2966 | 272 | 272 | 250 | 250 | 250 | >250 | 272 | 125 | 136 | Activity Class bound [2]: 5 (Peptides reducing luminescence (lux) values to between 1500 to 3000 after 240 min.)
RAVAVIIRLRRV-NH2 (C-terminus assumed) [Bac014] | 1 | 1 | 5233 | 8217 | 7835 | 7867 | 8100 | 8931 | 8956 | 10738 | 12876 | 8 | 11 | 33 | 33 | 16 | 63 | 11 | 13 | 8 | 
RRWRIVVIRVRR-NH2 (C-terminus assumed) [Bac430] |  |  |  |  |  |  |  |  |  |  |  | 4 | 4 |  |  |  |  |  | 2 |  | MIC P. aerug [4]: 2 µg/mL; MIC S. Typhim. [5]: 4 µg/mL; MIC S. epi. [7]: 0.2 µg/mL
RRWVIWRR-NH2 (C-terminus assumed) [Bac437] |  |  |  |  |  |  |  |  |  |  |  | 63 | 32 |  |  |  |  |  | 16 |  | MIC P. aerug [4]: 250 µg/mL; MIC S. Typhim. [5]: 31 µg/mL; MIC S. epi. [7]: 8 µg/mL
RWWKIWVIRWWR-NH2 (C-terminus assumed) [Bac432] |  |  |  |  |  |  |  |  |  |  |  | 31 | 8 |  |  |  |  |  | 8 |  | MIC P. aerug [4]: 31 µg/mL; MIC S. Typhim. [5]: 16 µg/mL; MIC S. epi. [7]: 1 µg/mL
VIRRRRILAAVV-NH2 (C-terminus assumed) [Bac044] | 6 | 6 | 5592 | 7069 | 5932 | 5652 | 5206 | 5008 | 4999 | 5060 | 5195 | 136 | > 272 | > 250 | >250 | 250 | >250 | 113 | 250 | 113 | Activity Class bound [2]: 6 (Peptides having residual luminescence (lux) values greater than 3000 after 240 min.)
